Assay results taken from patent publication US10098350B2, “Fungicidal amides” (E. I. DU PONT DE NEMOURS AND COMPANY, priority 2013, dated 2018).

Columns and labels:
Type in all cases: in vivo
Septoria tritici = experiment: Test C: wheat seedlings sprayed with test suspension, inoculated with Septoria tritici (wheat leaf blotch), visual disease rating
Excerpt: (§1) General protocol for preparing test suspensions for Tests A-E: the test compounds were first dissolved in acetone in an amount equal to 3% of the final volume and then suspended at the desired concentration (in ppm) in acetone and purified water (50/50 mix by volume) containing 250 ppm of the surfactant Trem® 014 (polyhydric alcohol esters). The resulting test suspensions were then used in Tests A-E. Samples were applied to plants at either a 10 ppm (**), 40 ppm, 50 ppm (*) or 200 ppm (#) test solution to the point of run-off on the test plants with the equivalent of a rate of 40 g ai/ha, 160 g ai/ha, 200 g ai/ha, or 800 g ai/ha, respectively.
(§2) The test suspension was sprayed to the point of run-off on wheat seedlings. The following day the seedlings were inoculated with a spore suspension of Septoria tritici (the causal agent of wheat leaf blotch) and incubated in a saturated atmosphere at 24° C. for 48 h, and then moved to a growth chamber at 20° C. for 21 days, after which time visual disease ratings were made.
(§3) Results for Tests A-E are given in Table A. In the Table, a rating of 100 indicates 100% disease control and a rating of 0 indicates no disease control (relative to the controls). A dash (-) indicates no test results.

[1] = test system: Puccinia recondite f. sp. tritici; experiment: Test D: wheat seedlings sprayed with test suspension, inoculated with Puccinia recondite f. sp. tritici (wheat leaf rust), visual disease rating
Excerpt: as §1
as §2, with “Puccinia recondite f. sp. tritici;” for “Septoria tritici”, “rust)” for “blotch)”, “20°” for “24°”, “24” for “48”, “6” for “21”
as §3

[2] = test system: Erysiphe graminis f. sp. tritici; experiment: Test E: wheat seedlings sprayed with test suspension, inoculated with Erysiphe graminis f. sp. tritici (wheat powdery mildew), visual disease rating
Excerpt: as §1
The test suspension was sprayed to the point of run-off on wheat seedlings. The following day the seedlings were inoculated with a spore dust of Erysiphe graminis f. sp. tritici, (the causal agent of wheat powdery mildew) and incubated in a growth chamber at 20° C. for 7 or 8 days, after which time visual disease ratings were made.
as §3

[3] = Cmpd. No. marked '**' (other test rate; meaning of mark not shown)
[4] = Cmpd. No. marked '*' (other test rate; meaning of mark not shown)
[5] = Cmpd. No. unmarked, 100 = 100% disease control, 0 = no control relative to controls

Row | Structure (SMILES) | Test C rating (% disease control) (Septoria tritici; [3]) [%] | Test D rating (% disease control) [1, 3] [%] | Test E rating (% disease control) [2, 3] [%] | Test C rating (% disease control) (Septoria tritici; [4]) [%] | Test D rating (% disease control) [1, 4] [%] | Test E rating (% disease control) [2, 4] [%] | other results
1 | CC(c1ncc(-n2ccc(Br)n2)cc1Cl)N(C(=O)c1c(C(F)F)nn(C)c1F)C1CC1 (racemic) [compound 89] | 100 | 99 | 81 |  |  |  | 
2 | CC(c1ncc(-n2ccc(-c3ccccc3)n2)cc1Cl)N(C(=O)c1c(C(F)F)nn(C)c1F)C1CC1 (racemic) [compound 90] | 99 | 99 | 86 |  |  |  | 
3 | CC(c1ncc(-n2cccn2)cc1Cl)N(C(=O)c1c(C(F)F)nn(C)c1F)C1CC1 (racemic) [compound 101] | 96 | 82 | 79 |  |  |  | 
4 | C=C(C)c1ccc(-n2ccc(C(F)(F)F)n2)cc1C(C)N(C(=O)c1c(C(F)F)nn(C)c1F)C1CC1 (racemic) [compound 123] |  |  |  | 100 | 92 | 93 | 
5 | Cn1cc(C(=O)N(Cc2ncc(-n3ccc(C(F)(F)F)n3)cc2Br)C2CC2)c(C(F)F)n1 [compound 16] |  |  |  | 100 | 67 | 56 | 
6 | CC(c1cc(Cl)cc(-n2ccc(C(F)(F)F)n2)c1)N(C(=O)c1c(C(F)F)nn(C)c1F)C1CC1 (stereo not shown) [compound 54] |  |  |  | 96 | 99 | 93 | 
7 | Cc1ccc(C(C)N(C(=O)c2c(C(F)F)nn(C)c2F)C2CC2)cc1-n1ccc(C(F)(F)F)n1 (stereo not shown) [compound 73] |  |  |  |  |  |  | Test C rating (% disease control) (Septoria tritici; [5]): 99%; Test D rating (% disease control) [1, 5]: 85%; Test E rating (% disease control) [2, 5]: 90%
8 | CC(c1ccc(Cl)c(-n2ccc(C(F)(F)F)n2)c1)N(C(=O)c1c(C(F)F)nn(C)c1F)C1CC1 (stereo not shown) [compound 74] |  |  |  |  |  |  | Test C rating (% disease control) (Septoria tritici; [5]): 99%; Test D rating (% disease control) [1, 5]: 27%; Test E rating (% disease control) [2, 5]: 93%
9 | Cn1cc(C(=O)N(Cc2cc(-n3ccc(C(F)(F)F)n3)ncc2Cl)C2CC2)c(C(F)F)n1 [compound 75] | 24 | 45 | 0 |  |  |  | 
10 | CC(c1cccc(-n2ccc(C(F)(F)F)n2)c1Cl)N(C(=O)c1cn(C)nc1C(F)F)C1CC1 (stereo not shown) [compound 77] | 82 | 9 | 64 |  |  |  | 
11 | CC(c1ncc(-n2cc(Br)cn2)cc1Cl)N(C(=O)c1c(C(F)F)nn(C)c1F)C1CC1 (stereo not shown) [compound 78] | 100 | 94 | 92 |  |  |  | 
12 | CC(c1cccc(-n2ccc(C(F)(F)F)n2)c1Cl)N(C(=O)c1c(C(F)F)nn(C)c1F)C1CC1 (stereo not shown) [compound 79] |  |  |  | 99 | 74 | 98 | 
13 | Cc1cc(-n2ccc(C(F)(F)F)n2)cnc1CN(C(=O)c1c(C(F)F)nn(C)c1F)C1CC1 [compound 81] | 94 | 98 | 81 |  |  |  | 
14 | CC(C)c1ccc(-n2ccc(C(F)(F)F)n2)cc1C(C)N(C(=O)c1cn(C)nc1C(F)F)C1CC1 (stereo not shown) [compound 82] |  |  |  | 88 | 0 | 87 | 
15 | Cc1ccc(CN(C(=O)c2c(C(F)F)nn(C)c2F)C2CC2)cc1-n1ccc(C(F)(F)F)n1 [compound 87] |  |  |  | 98 | 80 | 92 | 
16 | Cn1nc(C(F)F)c(C(=O)N(Cc2cc(-n3ccc(C(F)(F)F)n3)ncc2Cl)C2CC2)c1F [compound 92] |  | 67 | 0 |  |  |  | 
17 | CC(C)c1cc(CN(C(=O)c2c(C(F)F)nn(C)c2F)C2CC2)ccc1-n1ccc(C(F)(F)F)n1 [compound 116] |  | 98 | 69 |  |  |  | 
